Results as given in ChEMBL document CHEMBL1201862, “PubChem BioAssay data set” (2004).
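96-well plates; 48 h exposure; 5 concentrations. Endpoints by linear interpolation between flanking doses. Not reached: highest tested concentration assigned. GI50 is the concentration that inhibits growth by half.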 Activity calls are given as the source filed them. No stated cut-off is given here; in the data, active = GI50 up to about 1.1 µM and inactive = higher.

What was measured:
Experiment in all cases: NCI-60 cell line screen, 48 h
SNB-75 = test system: SNB-75
OVCAR-4 = test system: OVCAR-4
KM12 = test system: KM12
T47D = test system: T47D
SN12C = test system: SN12C
HT-29 = test system: HT-29
NCI-H23 = test system: NCI-H23
IGROV-1 = test system: IGROV-1
A549 = test system: A549
UACC-257 = test system: UACC-257
MDA-MB-231 = test system: MDA-MB-231
DU-145 = test system: DU-145
RPMI-8226 = test system: RPMI-8226
U-251 = test system: U-251
Hs-578T = test system: Hs-578T
SW-620 = test system: SW-620
OVCAR-5 = test system: OVCAR-5
LOX IMVI = test system: LOX IMVI
M14 = test system: M14
SR = test system: SR
HCT-116 = test system: HCT-116
SF-539 = test system: SF-539
PC-3 = test system: PC-3
MCF7 = test system: MCF7
SNB-19 = test system: SNB-19
CAKI-1 = test system: CAKI-1
SK-MEL-2 = test system: SK-MEL-2
SF-268 = test system: SF-268
MDA-MB-435 = test system: MDA-MB-435
UO-31 = test system: UO-31
HOP-92 = test system: HOP-92
MDA-N = test system: MDA-N
OVCAR-8 = test system: OVCAR-8
OVCAR-3 = test system: OVCAR-3
SF-295 = test system: SF-295
UACC-62 = test system: UACC-62
HCT-15 = test system: HCT-15
SK-MEL-5 = test system: SK-MEL-5
HL-60 = test system: HL-60
HCC 2998 = test system: HCC 2998
NCI-H460 = test system: NCI-H460
ACHN = test system: ACHN
K562 = test system: K562
NCI-H522 = test system: NCI-H522
TK-10 = test system: TK-10
SK-OV-3 = test system: SK-OV-3
CCRF-CEM = test system: CCRF-CEM
BT-549 = test system: BT-549
NCI/ADR-RES = test system: NCI/ADR-RES
MOLT-4 = test system: MOLT-4
COLO 205 = test system: COLO 205
SK-MEL-28 = test system: SK-MEL-28
RXF 393 = test system: RXF 393
EKVX = test system: EKVX
Malme-3M = test system: Malme-3M
786-0 = test system: 786-0
NCI-H226 = test system: NCI-H226
HOP-62 = test system: HOP-62

## NC(CCCCCP(=O)(c1ccccc1)C1C=CC=CC1)C(=O)O (stereo not given)
SNB-75
  GI50: > 100 µM (inactive)
OVCAR-4
  GI50: > 100 µM (inactive)
KM12
  GI50: > 100 µM (inactive)
T47D
  GI50: 57.8 µM (inactive)
SN12C
  GI50: > 100 µM (inactive)
HT-29
  GI50: > 100 µM (inactive)
NCI-H23
  GI50: > 100 µM (inactive)
IGROV-1
  GI50: > 100 µM (inactive)
A549
  GI50: > 100 µM (inactive)
UACC-257
  GI50: > 100 µM (inactive)
MDA-MB-231
  GI50: > 100 µM (inactive)
DU-145
  GI50: > 100 µM (inactive)
RPMI-8226
  GI50: > 100 µM (inactive)
U-251
  GI50: > 100 µM (inactive)
Hs-578T
  GI50: > 100 µM (inactive)
SW-620
  GI50: > 100 µM (inactive)
OVCAR-5
  GI50: > 100 µM (inactive)
LOX IMVI
  GI50: > 100 µM (inactive)
M14
  GI50: > 100 µM (inactive)
SR
  GI50: > 100 µM (inactive)
HCT-116
  GI50: > 100 µM (inactive)
SF-539
  GI50: > 100 µM (inactive)
PC-3
  GI50: > 100 µM (inactive)
MCF7
  GI50: > 100 µM (inactive)
SNB-19
  GI50: > 100 µM (inactive)
CAKI-1
  GI50: > 100 µM (inactive)
SK-MEL-2
  GI50: > 100 µM (inactive)
SF-268
  GI50: > 100 µM (inactive)
MDA-MB-435
  GI50: > 100 µM (inactive)
UO-31
  GI50: > 100 µM (inactive)
HOP-92
  GI50: > 100 µM (inactive)
MDA-N
  GI50: > 100 µM (inactive)
OVCAR-8
  GI50: > 100 µM (inactive)
OVCAR-3
  GI50: > 100 µM (inactive)
SF-295
  GI50: > 100 µM (inactive)
UACC-62
  GI50: 51.2 µM (inactive)
HCT-15
  GI50: > 100 µM
SK-MEL-5
  GI50: > 100 µM (inactive)
HL-60
  GI50: > 100 µM (inactive)
HCC 2998
  GI50: > 10 µM (inactive)
NCI-H460
  GI50: > 100 µM (inactive)
ACHN
  GI50: > 100 µM (inactive)
K562
  GI50: > 100 µM (inactive)
NCI-H522
  GI50: > 100 µM (inactive)
TK-10
  GI50: > 100 µM (inactive)
SK-OV-3
  GI50: > 100 µM (inactive)
CCRF-CEM
  GI50: > 100 µM (inactive)
BT-549
  GI50: > 100 µM (inactive)
NCI/ADR-RES
  GI50: > 100 µM (inactive)
MOLT-4
  GI50: > 100 µM (inactive)
COLO 205
  GI50: > 100 µM (inactive)
SK-MEL-28
  GI50: > 100 µM (inactive)
RXF 393
  GI50: > 100 µM (inactive)
EKVX
  GI50: > 100 µM (inactive)

## O=S(=O)(O)c1ccc2c(/N=N/c3ccc(Sc4ccc(/N=N/c5c(O)ccc6cc(S(=O)(=O)O)ccc56)cc4)cc3)c(O)ccc2c1
Malme-3M
  GI50: > 100 µM (inactive)
OVCAR-4
  GI50: > 100 µM (inactive)
KM12
  GI50: > 100 µM (inactive)
T47D
  GI50: > 100 µM (inactive)
SN12C
  GI50: > 100 µM (inactive)
HT-29
  GI50: > 100 µM (inactive)
NCI-H23
  GI50: > 100 µM (inactive)
IGROV-1
  GI50: > 100 µM (inactive)
A549
  GI50: > 100 µM (inactive)
UACC-257
  GI50: > 100 µM (inactive)
MDA-MB-231
  GI50: > 100 µM (inactive)
DU-145
  GI50: > 100 µM (inactive)
RPMI-8226
  GI50: > 100 µM (inactive)
U-251
  GI50: > 100 µM (inactive)
Hs-578T
  GI50: > 100 µM (inactive)
SW-620
  GI50: > 100 µM (inactive)
OVCAR-5
  GI50: > 100 µM (inactive)
M14
  GI50: > 100 µM (inactive)
786-0
  GI50: > 100 µM (inactive)
SR
  GI50: > 100 µM (inactive)
HCT-116
  GI50: > 100 µM (inactive)
SF-539
  GI50: > 100 µM (inactive)
PC-3
  GI50: > 100 µM (inactive)
MCF7
  GI50: > 100 µM (inactive)
SNB-19
  GI50: > 100 µM (inactive)
CAKI-1
  GI50: > 100 µM (inactive)
SK-MEL-2
  GI50: > 100 µM (inactive)
SF-268
  GI50: > 100 µM (inactive)
NCI-H226
  GI50: > 100 µM (inactive)
MDA-MB-435
  GI50: > 100 µM (inactive)
UO-31
  GI50: > 100 µM (inactive)
HOP-92
  GI50: > 100 µM (inactive)
MDA-N
  GI50: > 100 µM (inactive)
HOP-62
  GI50: > 100 µM (inactive)
OVCAR-8
  GI50: > 100 µM (inactive)
OVCAR-3
  GI50: > 100 µM (inactive)
SF-295
  GI50: > 100 µM (inactive)
UACC-62
  GI50: > 100 µM (inactive)
HCT-15
  GI50: > 100 µM
SK-MEL-5
  GI50: > 100 µM (inactive)
HL-60
  GI50: > 100 µM (inactive)
HCC 2998
  GI50: > 100 µM (inactive)
NCI-H460
  GI50: > 100 µM (inactive)
ACHN
  GI50: > 100 µM (inactive)
K562
  GI50: > 100 µM (inactive)
NCI-H522
  GI50: > 100 µM (inactive)
TK-10
  GI50: > 100 µM (inactive)
SK-OV-3
  GI50: > 100 µM (inactive)
CCRF-CEM
  GI50: > 100 µM (inactive)
BT-549
  GI50: > 100 µM (inactive)
NCI/ADR-RES
  GI50: > 100 µM (inactive)
MOLT-4
  GI50: > 100 µM (inactive)
COLO 205
  GI50: > 100 µM (inactive)
SK-MEL-28
  GI50: > 100 µM (inactive)
RXF 393
  GI50: > 100 µM (inactive)
EKVX
  GI50: > 100 µM (inactive)
